Measured values: ChEMBL document CHEMBL3259789, “Indothiazinone, an indolyl thiazolyl ketone from a novel myxobacterium belonging to the Sorangiineae” (J Nat Prod, 2014)
Values after ≈ are worked out from the molar mass of the structure shown. Active and inactive are the calls of the source. The rule behind the calls is not given here.

What was measured:
Pimelobacter simplex [1] = experiment: Antimicrobial activity against Nocardioides simplex DSM 20130 by serial dilution method; assay type: functional
Nocardia sp. [2] = experiment: Antimicrobial activity against Nocardia sp. DSM 43069 by serial dilution method; assay type: functional
[3] = system: Schizosaccharomyces pombe; experiment: Antimicrobial activity against Schizosaccharomyces pombe DSM 70572 by serial dilution method; assay type: functional
Rhodotorula glutinis [4] = experiment: Antimicrobial activity against Rhodotorula glutinis DSM 10134 by serial dilution method; assay type: functional
Trichosporon oleaginosus [5] = experiment: Antimicrobial activity against Trichosporon oleaginosus DSM 11815 by serial dilution method; assay type: functional; settings: Cutaneotrichosporon oleaginosum
Mucor hiemalis [6] = experiment: Antimicrobial activity against Mucor hiemalis DSM 2656 by serial dilution method; assay type: functional
Aspergillus clavatus [7] = experiment: Antimicrobial activity against Aspergillus clavatus DSM 816 by serial dilution method; assay type: functional
Debaryomyces hansenii [8] = experiment: Antimicrobial activity against Debaryomyces hansenii DSM 3428 by serial dilution method; assay type: functional
Staphylococcus aureus [9] = experiment: Antimicrobial activity against Staphylococcus aureus DSM 346 at 6.7 to 67 ug/ml by serial dilution method; assay type: functional, organism-based
[10] = system: Mycolicibacterium diernhoferi; experiment: Antimicrobial activity against Mycobacterium diernhoferi DSM 43524 at 6.7 to 67 ug/ml by serial dilution method; assay type: functional, organism-based
Micrococcus luteus [11] = experiment: Antimicrobial activity against Micrococcus luteus DSM 20030 at 6.7 to 67 ug/ml by serial dilution method; assay type: functional, organism-based
Paenibacillus polymyxa [12] = experiment: Antimicrobial activity against Paenibacillus polymyxa DSM 36 at 6.7 to 67 ug/ml by serial dilution method; assay type: functional
Pseudomonas aeruginosa [13] = experiment: Antimicrobial activity against Pseudomonas aeruginosa DSM 50071 at 6.7 to 67 ug/ml by serial dilution method; assay type: functional, organism-based
[14] = system: Chromobacterium violaceum; experiment: Antimicrobial activity against Chromobacterium violaceum DSM 30191 at 6.7 to 67 ug/ml by serial dilution method; assay type: functional, organism-based
Escherichia coli [15] = experiment: Antimicrobial activity against Escherichia coli DSM 1116 at 6.7 to 67 ug/ml by serial dilution method; assay type: functional, organism-based
Candida albicans [16] = experiment: Antimicrobial activity against Candida albicans DSM 1665 at 6.7 to 67 ug/ml by serial dilution method; assay type: functional, organism-based
Wickerhamomyces anomalus [17] = experiment: Antimicrobial activity against Pichia anomala DSM 6766 at 6.7 to 67 ug/ml by serial dilution method; assay type: functional, organism-based
Eremothecium coryli [18] = experiment: Antimicrobial activity against Nematospora coryli DSM 6981 at 6.7 to 67 ug/ml by serial dilution method; assay type: functional, organism-based
Saccharomyces cerevisiae [19] = experiment: Antimicrobial activity against Saccharomyces cerevisiae BTc-3A at 6.7 to 67 ug/ml by serial dilution method; assay type: functional, organism-based
Pichia membranifaciens [20] = experiment: Antimicrobial activity against Pichia membranifaciens DSM 21959 at 6.7 to 67 ug/ml by serial dilution method; assay type: functional, organism-based
Amorphotheca resinae [21] = experiment: Antimicrobial activity against Hormoconis resinae DSM 1203 at 6.7 to 67 ug/ml by serial dilution method; assay type: functional, organism-based
Penicillium capsulatum [22] = experiment: Antimicrobial activity against Penicillium capsulatum DSM 2210 at 6.7 to 67 ug/ml by serial dilution method; assay type: functional
[23] = Cytotoxicity against mouse L929 cells after 5 days; assay type: cell-based; settings: read-out: LC50
Candida albicans [24] = experiment: Antimicrobial activity against Candida albicans DSM 1665 by serial dilution method; assay type: functional
Wickerhamomyces anomalus [25] = experiment: Antimicrobial activity against Pichia anomala DSM 6766 by serial dilution method; assay type: functional, organism-based
Eremothecium coryli [26] = experiment: Antimicrobial activity against Nematospora coryli DSM 6981 by serial dilution method; assay type: functional
Saccharomyces cerevisiae [27] = experiment: Antimicrobial activity against Saccharomyces cerevisiae BTc-3A by serial dilution method; assay type: functional, organism-based
Pichia membranifaciens [28] = experiment: Antimicrobial activity against Pichia membranifaciens DSM 21959 by serial dilution method; assay type: functional, organism-based
Amorphotheca resinae [29] = experiment: Antimicrobial activity against Hormoconis resinae DSM 1203 by serial dilution method; assay type: functional, organism-based
Penicillium capsulatum [30] = experiment: Antimicrobial activity against Penicillium capsulatum DSM 2210 by serial dilution method; assay type: functional
Pimelobacter simplex [31] = experiment: Antimicrobial activity against Nocardioides simplex DSM 20130 at 6.7 to 67 ug/ml by serial dilution method; assay type: functional
Nocardia sp. [32] = experiment: Antimicrobial activity against Nocardia sp. DSM 43069 at 6.7 to 67 ug/ml by serial dilution method; assay type: functional, organism-based
[33] = system: Schizosaccharomyces pombe; experiment: Antimicrobial activity against Schizosaccharomyces pombe DSM 70572 at 6.7 to 67 ug/ml by serial dilution method; assay type: functional, organism-based
Debaryomyces hansenii [34] = experiment: Antimicrobial activity against Debaryomyces hansenii DSM 3428 at 6.7 to 67 ug/ml by serial dilution method; assay type: functional, organism-based
Rhodotorula glutinis [35] = experiment: Antimicrobial activity against Rhodotorula glutinis DSM 10134 at 6.7 to 67 ug/ml by serial dilution method; assay type: functional, organism-based
Trichosporon oleaginosus [36] = experiment: Antimicrobial activity against Trichosporon oleaginosus DSM 11815 at 6.7 to 67 ug/ml by serial dilution method; assay type: functional; settings: Cutaneotrichosporon oleaginosum
Mucor hiemalis [37] = experiment: Antimicrobial activity against Mucor hiemalis DSM 2656 at 6.7 to 67 ug/ml by serial dilution method; assay type: functional, organism-based
Aspergillus clavatus [38] = experiment: Antimicrobial activity against Aspergillus clavatus DSM 816 at 6.7 to 67 ug/ml by serial dilution method; assay type: functional, organism-based
Pseudomonas aeruginosa [39] = experiment: Antimicrobial activity against Pseudomonas aeruginosa DSM 50071 by serial dilution method; assay type: functional, organism-based
Bacillus subtilis [40] = experiment: Antimicrobial activity against Bacillus subtilis DSM 10 by serial dilution method; assay type: functional
Staphylococcus aureus [41] = experiment: Antimicrobial activity against Staphylococcus aureus DSM 346 by serial dilution method; assay type: functional
[42] = system: Mycolicibacterium diernhoferi; experiment: Antimicrobial activity against Mycobacterium diernhoferi DSM 43524 by serial dilution method; assay type: functional
Micrococcus luteus [43] = experiment: Antimicrobial activity against Micrococcus luteus DSM 20030 by serial dilution method; assay type: functional
Paenibacillus polymyxa [44] = experiment: Antimicrobial activity against Paenibacillus polymyxa DSM 36 by serial dilution method; assay type: functional
[45] = system: Chromobacterium violaceum; experiment: Antimicrobial activity against Chromobacterium violaceum DSM 30191 by serial dilution method; assay type: functional
Escherichia coli [46] = experiment: Antimicrobial activity against Escherichia coli DSM 1116 by serial dilution method; assay type: functional
Bacillus subtilis [47] = experiment: Antimicrobial activity against Bacillus subtilis DSM 10 at 6.7 to 67 ug/ml by serial dilution method; assay type: functional, organism-based

Row | Molecule | MIC (Pimelobacter simplex [1]) | MIC (Rhodotorula glutinis [4]) | MIC (Trichosporon oleaginosus [5]) | MIC (Mucor hiemalis [6]) | MIC (Aspergillus clavatus [7]) | inhibition (Staphylococcus aureus [9]) | inhibition [10] | inhibition (Micrococcus luteus [11]) | inhibition (Paenibacillus polymyxa [12]) | inhibition (Pseudomonas aeruginosa [13]) | inhibition [14] | inhibition (Escherichia coli [15]) | inhibition (Candida albicans [16]) | inhibition (Wickerhamomyces anomalus [17]) | inhibition (Saccharomyces cerevisiae [19]) | inhibition (Pichia membranifaciens [20]) | inhibition (Amorphotheca resinae [21]) | inhibition (Penicillium capsulatum [22]) | CC50 at 120 h [23] | inhibition [33] | also measured
1 | C=C(C)/C=C/c1ccc2[nH]cc(C/C=N\O)c2c1 | 33.3 µg/mL (≈ 139 µM) | 67 µg/mL (≈ 279 µM) | 67 µg/mL (≈ 279 µM) | 67 µg/mL (≈ 279 µM) | 67 µg/mL (≈ 279 µM) | inactive | inactive | inactive | inactive | inactive | inactive | inactive | inactive | inactive | inactive | inactive | inactive | inactive | 6.8 µg/mL (≈ 28.3 µM) | – | MIC (Nocardia sp. [2]): 33.3 µg/mL (≈ 139 µM); MIC [3]: 67 µg/mL (≈ 279 µM); MIC (Debaryomyces hansenii [8]): 67 µg/mL (≈ 279 µM); inhibition (Eremothecium coryli [18]): inactive
2 | NYSTATIN | – | 0.52 µg/mL | 1 µg/mL | 2.1 µg/mL | 2.1 µg/mL | – | – | – | – | – | – | – | – | – | – | – | – | – | – | – | MIC [3]: 33.3 µg/mL; MIC (Candida albicans [24]): 4.2 µg/mL; MIC (Wickerhamomyces anomalus [25]): 4.2 µg/mL; MIC (Eremothecium coryli [26]): 4.2 µg/mL; MIC (Saccharomyces cerevisiae [27]): 1.7 µg/mL; MIC (Pichia membranifaciens [28]): 0.83 µg/mL; MIC (Amorphotheca resinae [29]): < 0.25 µg/mL; MIC (Penicillium capsulatum [30]): 16.6 µg/mL; MIC (Debaryomyces hansenii [8]): 6.7 µg/mL
3 | C=C(C)/C=C/c1ccc2[nH]cc(C/C=N/O)c2c1 | 33.3 µg/mL (≈ 139 µM) | 67 µg/mL (≈ 279 µM) | 67 µg/mL (≈ 279 µM) | 67 µg/mL (≈ 279 µM) | 67 µg/mL (≈ 279 µM) | inactive | inactive | inactive | inactive | inactive | inactive | inactive | inactive | inactive | inactive | inactive | inactive | inactive | 6.8 µg/mL (≈ 28.3 µM) | – | MIC (Nocardia sp. [2]): 33.3 µg/mL (≈ 139 µM); MIC [3]: 67 µg/mL (≈ 279 µM); MIC (Debaryomyces hansenii [8]): 67 µg/mL (≈ 279 µM); inhibition (Eremothecium coryli [18]): inactive
4 | O=C(c1nccs1)c1c[nH]c2ccccc12 | – | 67 µg/mL (≈ 294 µM) | 67 µg/mL (≈ 294 µM) | 33.3 µg/mL (≈ 146 µM) | 33.3 µg/mL (≈ 146 µM) | inactive | inactive | inactive | inactive | inactive | inactive | inactive | inactive | inactive | inactive | inactive | inactive | inactive | > 10 µg/mL | inactive | MIC (Eremothecium coryli [26]): 33.3 µg/mL (≈ 146 µM); inhibition (Pimelobacter simplex [31]): inactive; inhibition (Nocardia sp. [32]): inactive; inhibition (Debaryomyces hansenii [34]): inactive
5 | C=C(C)/C=C/c1ccc2[nH]cc(CCO)c2c1 | – | – | – | – | – | inactive | inactive | inactive | inactive | inactive | inactive | inactive | inactive | inactive | inactive | inactive | inactive | inactive | > 10 µg/mL | inactive | inhibition (Pimelobacter simplex [31]): inactive; inhibition (Nocardia sp. [32]): inactive; inhibition (Rhodotorula glutinis [35]): inactive; inhibition (Eremothecium coryli [18]): inactive; inhibition (Trichosporon oleaginosus [36]): inactive; inhibition (Mucor hiemalis [37]): inactive; inhibition (Aspergillus clavatus [38]): inactive; inhibition (Debaryomyces hansenii [34]): inactive
6 | GENTAMICIN | – | – | – | – | – | – | – | – | – | – | – | – | – | – | – | – | – | – | – | – | MIC (Pseudomonas aeruginosa [39]): 67 µg/mL
7 | CN(C)[C@@H]1C(O)=C(C(N)=O)C(=O)[C@@]2(O)C(O)=C3C(=O)c4c(O)cccc4[C@@](C)(O)[C@H]3[C@H](O)[C@@H]12.Cl [OXYTETRACYCLINE HYDROCHLORIDE] | 16.6 µg/mL | – | – | – | – | – | – | – | – | – | – | – | – | – | – | – | – | – | – | – | MIC (Bacillus subtilis [40]): 8.3 µg/mL; MIC (Nocardia sp. [2]): 8.3 µg/mL; MIC (Staphylococcus aureus [41]): 0.21 µg/mL; MIC [42]: < 0.25 µg/mL; MIC (Micrococcus luteus [43]): 3.3 µg/mL; MIC (Paenibacillus polymyxa [44]): 8.3 µg/mL; MIC [45]: 1 µg/mL; MIC (Escherichia coli [46]): 1 µg/mL
8 | CC(=O)/C=C/c1ccc2[nH]cc(CCO)c2c1 | – | – | – | – | – | inactive | – | inactive | – | inactive | inactive | inactive | inactive | inactive | – | – | – | – | – | inactive | inhibition (Bacillus subtilis [47]): inactive; inhibition (Rhodotorula glutinis [35]): inactive; inhibition (Mucor hiemalis [37]): inactive
9 | CC1=C(CCO)C(=O)c2ccccc2C1=O | – | 67 µg/mL (≈ 310 µM) | – | 67 µg/mL (≈ 310 µM) | – | – | – | inactive | – | – | – | inactive | – | inactive | – | – | – | – | – | inactive | MIC (Bacillus subtilis [40]): 33.3 µg/mL (≈ 154 µM); MIC (Staphylococcus aureus [41]): 33.3 µg/mL (≈ 154 µM); MIC [45]: 67 µg/mL (≈ 310 µM); MIC (Candida albicans [24]): 67 µg/mL (≈ 310 µM)
